Results from EP2815749A1, “Solid form of 4-amino-2-(2,6-dioxopiperidine-3-yl)isoindoline-1,3-dione having specified X-ray diffraction pattern” (IP Gesellschaft für Management mbH, priority 2013, dated 2014).
Converted amounts (≈) assume the structure as drawn. Where two headings read alike, the source gives them in different places.

Assay: Approximate solubility of pomalidomide at 50°C in 96 solvent compositions (LC)
Format: physicochemical
Conditions: organic solvent or mixture, thermodynamic from solid
Description: Pomalidomide Solid Form Preparations: Preparation of solid form of pomalidomide was conducted by equilibrating pomalidomide in 96 solvent compositions at 50°C and subjected to four conditions: slurry, evaporation, cooling, and precipitation. […] Solvents were then added, as binary gradients consisting of main solvent and co-solvent, to give a total of 150 µl, in each of the 96 vials (see Table 6 for the exact composition of each vial). […] For each of the evaporation, precipitation, and cooling experiments, approximately 8 mg of a solid sample of pomalidomide (e.g., Form A) was delivered to each position of the plate. Solvents were added to the master plate, as binary gradients consisting of main solvent and co-solvent, to give a total volume of 800 µT in each of the 96 vials (see Table 7 for the exact composition of each vial). The master plate, containing pomalidomide and solvents, was then equilibrated by stirring for 2 hours at 50°C. Upon completion of the equilibration cycle, the supernatant was aspirated into a four-tipped needle assembly and transferred to a sealed parallel filtration assembly. The mixtures were forced through the filtration assembly using positive pressure and the filtrates were collected in an array of glass vials. The filtered solutions were subsequently aspirated into the four-tipped assembly and aliquots were dispensed to an array of glass vials for subsequent LC analysis to determine approximate concentrations of pomalidomide in each solvent composition at the beginning of the experiments (Table 8). Both the four-tipped needle assembly and filtration assembly were maintained at the equilibration temperature of 50°C throughout the entire transfer process.
The results correspond to the solvent systems described in Table 7, equilibrated at 50°C for 2 hours. […] The approximate concentrations were determined by LC.

Work on Nc1cccc2c1C(=O)N(C1CCC(=O)NC1=O)C2=O (stereo not drawn) [Pomalidomide, 4-amino-2-(2,6-dioxopiperidine-3-yl)isoindoline-1,3-dione] yielded a solubility at 2 h (binary solvent composition (main solvent and co-solvent), 50 °C, solvent system D12 of Table 7, read-out: Approximate Measured Solubility) of 670 µg/mL (≈ 2450 µM), a solubility at 2 h (binary solvent mixture (main solvent and co-solvent), 50 °C, solvent system D9 of Table 7, read-out: Approximate Measured Solubility) of 1630 µg/mL (≈ 5970 µM) and a solubility at 2 h (binary solvent mixture (main solvent and co-solvent), 50 °C, solvent system E1 of Table 7, read-out: Approximate Measured Solubility) of 1600 µg/mL (≈ 5860 µM). It also gave a solubility at 2 h (binary solvent mixture (main solvent and co-solvent), 50 °C, solvent system E2 of Table 7, read-out: Approximate Measured Solubility) of 690 µg/mL (≈ 2530 µM), a solubility at 2 h (binary solvent mixture (main solvent and co-solvent), 50 °C, solvent system E3 of Table 7, read-out: Approximate Measured Solubility) of 320 µg/mL (≈ 1170 µM) and a solubility at 2 h (binary solvent mixture (main solvent and co-solvent), 50 °C, solvent system E4 of Table 7, read-out: Approximate Measured Solubility) of 130 µg/mL (≈ 476 µM). It also gave a solubility at 2 h (binary solvent mixture (main solvent and co-solvent), 50 °C, solvent system E5 of Table 7, read-out: Approximate Measured Solubility) of 20 µg/mL (≈ 73.2 µM), a solubility at 2 h (binary solvent mixture (main solvent and co-solvent), 50 °C, solvent system E7 of Table 7, read-out: Approximate Measured Solubility) of 20 µg/mL (≈ 73.2 µM) and a solubility at 2 h (binary solvent mixture (main solvent and co-solvent), 50 °C, solvent system E8 of Table 7, read-out: Approximate Measured Solubility) of 730 µg/mL (≈ 2670 µM). It also gave a solubility at 2 h (binary solvent mixture (main solvent and co-solvent), 50 °C, solvent system E9 of Table 7, read-out: Approximate Measured Solubility) of 1630 µg/mL (≈ 5970 µM), a solubility at 2 h (binary solvent mixture (main solvent and co-solvent), 50 °C, solvent system E10 of Table 7, read-out: Approximate Measured Solubility) of 2310 µg/mL (≈ 8450 µM) and a solubility at 2 h (binary solvent mixture (main solvent and co-solvent), 50 °C, solvent system E11 of Table 7, read-out: Approximate Measured Solubility) of 2480 µg/mL (≈ 9080 µM). It also gave a solubility at 2 h (binary solvent mixture (main solvent and co-solvent), 50 °C, solvent system E12 of Table 7, read-out: Approximate Measured Solubility) of 950 µg/mL (≈ 3480 µM), a solubility at 2 h (binary solvent mixture (main solvent and co-solvent), 50 °C, solvent system F1 of Table 7, read-out: Approximate Measured Solubility) of 100 µg/mL (≈ 366 µM) and a solubility at 2 h (binary solvent mixture (main solvent and co-solvent), 50 °C, solvent system F2 of Table 7, read-out: Approximate Measured Solubility) of 60 µg/mL (≈ 220 µM). It also gave a solubility at 2 h (binary solvent mixture (main solvent and co-solvent), 50 °C, solvent system F3 of Table 7, read-out: Approximate Measured Solubility) of 30 µg/mL (≈ 110 µM), a solubility at 2 h (binary solvent mixture (main solvent and co-solvent), 50 °C, solvent system F4 of Table 7, read-out: Approximate Measured Solubility) of 10 µg/mL (≈ 36.6 µM) and a solubility at 2 h (binary solvent mixture (main solvent and co-solvent), 50 °C, solvent system F7 of Table 7, read-out: Approximate Measured Solubility) of 40 µg/mL (≈ 146 µM). The solubility at 2 h (binary solvent mixture (main solvent and co-solvent), 50 °C, solvent system F8 of Table 7, read-out: Approximate Measured Solubility) was 40 µg/mL (≈ 146 µM), the solubility at 2 h (binary solvent mixture (main solvent and co-solvent), 50 °C, solvent system F9 of Table 7, read-out: Approximate Measured Solubility) was 130 µg/mL (≈ 476 µM) and the solubility at 2 h (binary solvent mixture (main solvent and co-solvent), 50 °C, solvent system F12 of Table 7, read-out: Approximate Measured Solubility) was 550 µg/mL (≈ 2010 µM). It also gave a solubility at 2 h (binary solvent mixture (main solvent and co-solvent), 50 °C, solvent system G1 of Table 7, read-out: Approximate Measured Solubility) of 2690 µg/mL (≈ 9840 µM), a solubility at 2 h (binary solvent mixture (main solvent and co-solvent), 50 °C, solvent system G2 of Table 7, read-out: Approximate Measured Solubility) of 1650 µg/mL (≈ 6040 µM) and a solubility at 2 h (binary solvent mixture (main solvent and co-solvent), 50 °C, solvent system G3 of Table 7, read-out: Approximate Measured Solubility) of 700 µg/mL (≈ 2560 µM). For the same compound, the solubility at 2 h (binary solvent mixture (main solvent and co-solvent), 50 °C, solvent system G4 of Table 7, read-out: Approximate Measured Solubility) was 230 µg/mL (≈ 842 µM), the solubility at 2 h (binary solvent mixture (main solvent and co-solvent), 50 °C, solvent system G5 of Table 7, read-out: Approximate Measured Solubility) was 60 µg/mL (≈ 220 µM) and the solubility at 2 h (binary solvent mixture (main solvent and co-solvent), 50 °C, solvent system G7 of Table 7, read-out: Approximate Measured Solubility) was 30 µg/mL (≈ 110 µM). The solubility at 2 h (binary solvent mixture (main solvent and co-solvent), 50 °C, solvent system G8 of Table 7, read-out: Approximate Measured Solubility) was 410 µg/mL (≈ 1500 µM), the solubility at 2 h (binary solvent mixture (main solvent and co-solvent), 50 °C, solvent system G9 of Table 7, read-out: Approximate Measured Solubility) was 650 µg/mL (≈ 2380 µM) and the solubility at 2 h (binary solvent mixture (main solvent and co-solvent), 50 °C, solvent system G10 of Table 7, read-out: Approximate Measured Solubility) was 2310 µg/mL (≈ 8450 µM). The solubility at 2 h (binary solvent mixture (main solvent and co-solvent), 50 °C, solvent system G11 of Table 7, read-out: Approximate Measured Solubility) was 5180 µg/mL (≈ 19000 µM), the solubility at 2 h (binary solvent mixture (main solvent and co-solvent), 50 °C, solvent system G12 of Table 7, read-out: Approximate Measured Solubility) was 5990 µg/mL (≈ 21900 µM) and the solubility at 2 h (binary solvent mixture (main solvent and co-solvent), 50 °C, solvent system H1 of Table 7, read-out: Approximate Measured Solubility) was 380 µg/mL (≈ 1390 µM). For the same compound, the solubility at 2 h (binary solvent mixture (main solvent and co-solvent), 50 °C, solvent system H2 of Table 7, read-out: Approximate Measured Solubility) was 240 µg/mL (≈ 878 µM), the solubility at 2 h (binary solvent mixture (main solvent and co-solvent), 50 °C, solvent system H3 of Table 7, read-out: Approximate Measured Solubility) was 110 µg/mL (≈ 403 µM) and the solubility at 2 h (binary solvent mixture (main solvent and co-solvent), 50 °C, solvent system H4 of Table 7, read-out: Approximate Measured Solubility) was 40 µg/mL (≈ 146 µM). The solubility at 2 h (binary solvent mixture (main solvent and co-solvent), 50 °C, solvent system H7 of Table 7, read-out: Approximate Measured Solubility) was 50 µg/mL (≈ 183 µM), the solubility at 2 h (binary solvent mixture (main solvent and co-solvent), 50 °C, solvent system H8 of Table 7, read-out: Approximate Measured Solubility) was 400 µg/mL (≈ 1460 µM) and the solubility at 2 h (binary solvent mixture (main solvent and co-solvent), 50 °C, solvent system H10 of Table 7, read-out: Approximate Measured Solubility) was 1500 µg/mL (≈ 5490 µM). For the same compound, the solubility at 2 h (binary solvent mixture (main solvent and co-solvent), 50 °C, solvent system H11 of Table 7, read-out: Approximate Measured Solubility) was 1960 µg/mL (≈ 7170 µM), the solubility at 2 h (binary solvent mixture (main solvent and co-solvent), 50 °C, solvent system H12 of Table 7, read-out: Approximate Measured Solubility) was 2060 µg/mL (≈ 7540 µM) and the solubility at 2 h (solvent system H9 of Table 7, read-out: Approximate Measured Solubility) was 860 µg/mL (≈ 3150 µM). For the same compound, the solubility at 2 h (solvent system A1 of Table 7, 50 °C, solvent system A1 of Table 7, read-out: Approximate Measured Solubility) was 2240 µg/mL (≈ 8200 µM), the solubility at 2 h (solvent system A2 of Table 7, 50 °C, solvent system A2 of Table 7, read-out: Approximate Measured Solubility) was 8190 µg/mL (≈ 30000 µM) and the solubility at 2 h (solvent system A3 of Table 7, 50 °C, solvent system A3 of Table 7, read-out: Approximate Measured Solubility) was 2430 µg/mL (≈ 8890 µM). For the same compound, the solubility at 2 h (solvent system A10 of Table 7, 50 °C, solvent system A10 of Table 7, read-out: Approximate Measured Solubility) was 1830 µg/mL (≈ 6700 µM), the solubility at 2 h (solvent system A11 of Table 7, 50 °C, solvent system A11 of Table 7, read-out: Approximate Measured Solubility) was 290 µg/mL (≈ 1060 µM) and the solubility at 2 h (solvent system A12 of Table 7, 50 °C, solvent system A12 of Table 7, read-out: Approximate Measured Solubility) was 80 µg/mL (≈ 293 µM).
